Key:
[1] = tested on: manna grass; experiment: Experiment 1 foliar application to naturally growing weeds; assay type: in vivo, Digitaria adsceudes Henr.; conditions: for Reproduction-inhibiting effect: 2 months
How it was run: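 Dilute compounds to prescribed concentrations; add 0.1% octylphenyl polyoxyethanol; spray foliage of in-situ weeds at 150 liter per 10 are. Score killing 0–5 on day 21. Score reproduction (-) to (+++) at month 2 (cockspar grass) or month 4 (chigaya, azumanezasa, warunasubi).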

[2] = tested on: warunasubi; experiment: as above; assay type: in vivo, Solanum carolinensis L.; conditions: for Reproduction-inhibiting effect: 4 months; for Killing index of Upperground parts: 21 days
How it was run: (§1)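 Test compounds, diluted to prescribed concentrations with 0.1% octylphenyl polyoxyethanol surfactant, were sprayed onto foliage of naturally growing weeds at 150 liter per 10 are. Killing index (0, no effect; 5, death) was scored at 21 days. Reproduction was scored from (-), complete suppression, to (+++), none, at 2 months for cockspar grass and 4 months for the other weeds.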

[3] = tested on: hedge bindweed; experiment: as above; assay type: in vivo, Calystegis hederacea Wall.; conditions: 4 months
How it was run: as §1

[4] = tested on: azumanezasa; experiment: as above; assay type: in vivo, Pleioblastus Chino Makino; conditions: for Reproduction-inhibiting effect: 4 months; for Killing index of Upperground parts: 21 days
How it was run: as §1

[5] = tested on: chigaya; experiment: as above; assay type: in vivo, Imperata cylindrica Beauv.; conditions: for Reproduction-inhibiting effect: 4 months
How it was run: as §1

[6] = tested on: eulalia; experiment: Experiment 2 foliar application in Japanese cypress afforested land; assay type: in vivo, Miscanthus sinensis Andress.; design: key: 0 = no effect, 5 = death; conditions: after 3 months
How it was run: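 Field foliar spray on shrubs in Japanese cypress afforested land at 150 liter per 10 are, with compounds at prescribed concentrations. Killing index scored from 0 (no effect) to 5 (death) at 30 days and 3 months. Plant heights ranged from about 50 to 100 cm.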

[7] = tested on: Japanese bush cranberry; experiment: Experiment 3 foliar application to naturally growing shrubs; assay type: in vivo, Viburnum dilatatum Thunb.; conditions: after 3 months
How it was run: (§2)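 Compounds, diluted to prescribed concentrations with 0.1% octylphenyl polyoxyethanol as surfactant, were sprayed onto the foliage of naturally growing shrubs at 150 liter per 10 are. Kill was scored on a 0 (no effect) to 5 (death) index at 1 and 3 months. Regrowth was graded from − (no reproduction) to +++ (maximum) at 3 months.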

[8] = tested on: kiichigo; experiment: as above; assay type: in vivo, Rubus palmatsu Thunb. forma coptophyllus Makino
How it was run: as §2

[9] = tested on: Japanese prickly ash; experiment: as above; assay type: in vivo, Xanthoxylum piperitum DC.
How it was run: as §2

[10] = tested on: yamazakura; experiment: as above; assay type: in vivo, Prunus donarium Sieb. var. spontanae Makino; conditions: after 3 months
How it was run: as §2

[11] = tested on: water hyacinth; experiment: Experiment 5 foliar application to water hyacinths; assay type: in vivo, Eichhornia crassipes Solms; conditions: 3 months
How it was run: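 Two plants floated in fertilized water per vessel, sprayed foliarly with 0.1 or 0.2% aqueous compound solutions at 100 liter per 10 are plus 0.1% octylphenyl polyoxyethanol. Killing index (0 no effect to 5 death) scored at 21 days and 3 months; reproduction inhibition scored (-) to (+++) at 3 months.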

[12] = tested on: omodaka; experiment: Experiment 6 spray on aquatic plants in concrete pots; assay type: in vivo, Sagittaria trifolia L.; conditions: for Reproduction-inhibiting effect: 3 months; for Killing index: 21 days
Source text: (§3) The detail of the assessment made in the following Experiments of the invention was as follows:
(§4) Four months after treatment, evaluation was made for inhibition of reproduction expressed in terms of symbols ranging from (-) to (+++) where (-) means no reproduction, namely complete suppression of reproduction, (±) remarkable suppression of reproduction; (+) considerable suppression of reproduction; (++) medium supprestion of reproduction; and (+++) no suppression of reproduction.
(§5) A paddy field soil was packed in 50 cm. square concrete pots. omodaka (Sagittaria trifolia L.), urikawa (Sagittaria pygmaea Miq.), prog-bit (Hydrocharis dubia) and aginashi (Sagittaria Aginashi Makino) were transplanted; then water was poured onto the soil at 5 cm. depth.
(§6) Further, water hyacinth, greater-duckweed (Spirodela polyrhiza Schleid.) and duckweed (Lemna paucicostata Hegelm) were floated on the water.
(§7) After one month, the compounds of the invention diluted to the prescribed concentrations as indicated in Table 8 were sprayed in an amount of 100 liter per 10 are. As a surfactant, 0.1% of octylphenyl polyoxyethanol was added thereto.
(§8) The killing index (0, no effect; 5, death) after 21 days and 3 months and the reproduction-inhibiting effect (-, no reproduction; +++, maximum reproduction) after 3 months were determined.

[13] = tested on: aginashi; experiment: as above; assay type: in vivo, Sagittaria Aginashi Makino; conditions: 3 months
Source text: as §3, §4, §5, §6, §7, §8

[14] = tested on: water hyacinth; experiment: as above; assay type: in vivo, Eichhornia crassipes Solms; conditions: for Reproduction-inhibiting effect: 3 months
Source text: as §3, §4, §5, §6, §7, §8

[15] = tested on: duckweed; experiment: as above; assay type: in vivo, Lemna paucicostata Hegelm; conditions: for Reproduction-inhibiting effect: 3 months
Source text: as §3, §4, §5, §6, §7, §8

[16] = tested on: stonewort; experiment: Experiment 7 application to water; assay type: in vivo, Chara Braunii Gmel.; design: scale not given here
Source text: A black soil was packed in 50 cm. square concrete pots and water was poured there-onto at 50 cm. in depth. Hornwort (Ceratophyllum demersum L.), stonewort (Chara Braunii Gmel.) and salvinia (Salvinia natans All.) were transplanted and pond scum (Spirogira crassa Kutz) and diatoms (Bacillariophyta) were floated in the water.
Then, the compounds of the invention were applied dropwise onto the surface of the water so that the prescribed concentrations in the water are obtained as indicated in Table 9.

C[C@H](NC(=O)[C@H](C)NC(=O)[C@@H](N)CCP(C)(=O)O)C(=O)O [SF-1293 choline, (L-2-Amino-4-methylphosphinobutyryl)-L-alanyl-L-alanine choline]
3.5: Killing index of Upperground parts ([2]; 0.05%)
+: Reproduction-inhibiting effect ([1]; 0.05%) | Reproduction-inhibiting effect ([3]; 0.05%) | Reproduction-inhibiting effect ([4]; 0.05%) | Reproduction-inhibiting effect ([5]; 0.05%) | Reproduction-inhibiting effect ([15]; 0.05%)
++: Reproduction-inhibiting effect ([2]; 0.05%) | Reproduction-inhibiting ([7]; 0.05%) | Reproduction-inhibiting ([8]; 0.05%, after 3 months) | Reproduction-inhibiting ([9]; 0.05%, after 3 months) | Reproduction-inhibiting ([10]; 0.05%) | Reproduction-inhibiting effect ([12]; 0.05%) | Reproduction-inhibiting effect ([13]; 0.05%) | Reproduction-inhibiting effect ([14]; 0.05%)
±: Reproduction-inhibiting effect ([1]; 0.1%) | Reproduction-inhibiting effect ([2]; 0.1%) | Reproduction-inhibiting effect ([3]; 0.1%) | Reproduction-inhibiting ([9]; 0.1%, after 3 months) | Reproduction-inhibiting effect ([11]; 0.1%) | Reproduction-inhibiting effect ([12]; 0.1%) | Reproduction-inhibiting effect ([13]; 0.1%)
2: controlling effect ([16]; 1 ppm, 3 months)
-: Reproduction-inhibiting effect ([1]; 0.2%) | Reproduction-inhibiting effect ([2]; 0.2%) | Reproduction-inhibiting effect ([3]; 0.2%) | Reproduction-inhibiting effect ([4]; 0.1%) | Reproduction-inhibiting effect ([4]; 0.2%) | Reproduction-inhibiting effect ([5]; 0.1%) | Reproduction-inhibiting effect ([5]; 0.2%) | Reproduction-inhibiting ([7]; 0.1%) | Reproduction-inhibiting ([7]; 0.2%) | Reproduction-inhibiting ([8]; 0.1%, after 3 months) | Reproduction-inhibiting ([8]; 0.2%, after 3 months) | Reproduction-inhibiting ([9]; 0.2%, after 3 months) | Reproduction-inhibiting ([10]; 0.1%) | Reproduction-inhibiting ([10]; 0.2%) | Reproduction-inhibiting effect ([11]; 0.2%) | Reproduction-inhibiting effect ([12]; 0.2%) | Reproduction-inhibiting effect ([13]; 0.2%) | Reproduction-inhibiting effect ([14]; 0.1%) | Reproduction-inhibiting effect ([14]; 0.2%) | Reproduction-inhibiting effect ([15]; 0.1%) | Reproduction-inhibiting effect ([15]; 0.2%)
4: controlling effect ([16]; 3 ppm, 21 days)
5: controlling effect ([16]; 3 ppm, 3 months) | controlling effect ([16]; 10 ppm, 3 months) | controlling effect ([16]; 10 ppm, 21 days)
4.5: Killing index of Upperground parts ([1]; 0.1%, 21 days) | Killing index ([6]; 0.125%) | Killing index ([9]; 0.1%, after 3 months) | Killing index ([14]; 0.1%, 21 days) | Killing index ([15]; 0.1%, 21 days)
3: controlling effect ([16]; 1 ppm, 21 days)

CP(=O)(O)CCC(N)C(=O)O (racemic) [DL-AMPB choline]
5: controlling effect ([16]; 3 ppm, 3 months) | controlling effect ([16]; 10 ppm, 3 months) | controlling effect ([16]; 10 ppm, 21 days)
3: controlling effect ([16]; 1 ppm, 21 days)
++: Reproduction-inhibiting effect ([1]; 0.05%) | Reproduction-inhibiting effect ([2]; 0.05%) | Reproduction-inhibiting effect ([3]; 0.05%) | Reproduction-inhibiting effect ([4]; 0.05%) | Reproduction-inhibiting effect ([5]; 0.05%) | Reproduction-inhibiting ([7]; 0.1%) | Reproduction-inhibiting ([9]; 0.05%, after 3 months) | Reproduction-inhibiting ([10]; 0.05%) | Reproduction-inhibiting effect ([12]; 0.05%) | Reproduction-inhibiting effect ([13]; 0.05%) | Reproduction-inhibiting effect ([14]; 0.1%)
1: controlling effect ([16]; 1 ppm, 3 months)
3.5: Killing index of Upperground parts ([4]; 0.1%)
+: Reproduction-inhibiting ([7]; 0.2%) | Reproduction-inhibiting ([8]; 0.05%, after 3 months) | Reproduction-inhibiting ([9]; 0.1%, after 3 months) | Reproduction-inhibiting effect ([11]; 0.1%) | Reproduction-inhibiting effect ([15]; 0.05%)
4.5: Killing index of Upperground parts ([2]; 0.1%) | Killing index of Upperground parts ([5]; 0.1%, 21 days) | Killing index ([6]; 0.125%) | Killing index ([8]; 0.1%, after 3 months) | Killing index ([12]; 0.2%) | controlling effect ([16]; 3 ppm, 21 days)
-: Reproduction-inhibiting effect ([1]; 0.2%) | Reproduction-inhibiting effect ([2]; 0.2%) | Reproduction-inhibiting effect ([3]; 0.2%) | Reproduction-inhibiting effect ([4]; 0.2%) | Reproduction-inhibiting effect ([5]; 0.1%) | Reproduction-inhibiting effect ([5]; 0.2%) | Reproduction-inhibiting ([8]; 0.2%, after 3 months) | Reproduction-inhibiting ([9]; 0.2%, after 3 months) | Reproduction-inhibiting ([10]; 0.1%) | Reproduction-inhibiting ([10]; 0.2%) | Reproduction-inhibiting effect ([11]; 0.2%) | Reproduction-inhibiting effect ([12]; 0.2%) | Reproduction-inhibiting effect ([13]; 0.2%) | Reproduction-inhibiting effect ([14]; 0.2%) | Reproduction-inhibiting effect ([15]; 0.1%) | Reproduction-inhibiting effect ([15]; 0.2%)
+++: Reproduction-inhibiting ([7]; 0.05%) | Reproduction-inhibiting effect ([14]; 0.05%)
±: Reproduction-inhibiting effect ([1]; 0.1%) | Reproduction-inhibiting effect ([2]; 0.1%) | Reproduction-inhibiting effect ([3]; 0.1%) | Reproduction-inhibiting effect ([4]; 0.1%) | Reproduction-inhibiting ([8]; 0.1%, after 3 months) | Reproduction-inhibiting effect ([12]; 0.1%) | Reproduction-inhibiting effect ([13]; 0.1%)
1.5: Killing index of Upperground parts ([4]; 0.05%)

CP(=O)(O)CC[C@H](N)C(=O)O [L-AMPB choline, L-2-Amino-4-methylphosphino-butanoic acid choline]
4.5: Killing index ([8]; 0.05%, after 30 days) | Killing index ([9]; 0.05%, after 3 months) | Killing index ([9]; 0.05%, after 30 days) | Killing index ([12]; 0.1%)
5: controlling effect ([16]; 1 ppm, 3 months) | controlling effect ([16]; 3 ppm, 3 months) | controlling effect ([16]; 3 ppm, 21 days) | controlling effect ([16]; 10 ppm, 3 months) | controlling effect ([16]; 10 ppm, 21 days)
++: Reproduction-inhibiting effect ([14]; 0.05%)
-: Reproduction-inhibiting effect ([1]; 0.1%) | Reproduction-inhibiting effect ([1]; 0.2%) | Reproduction-inhibiting effect ([2]; 0.1%) | Reproduction-inhibiting effect ([2]; 0.2%) | Reproduction-inhibiting effect ([3]; 0.1%) | Reproduction-inhibiting effect ([3]; 0.2%) | Reproduction-inhibiting effect ([4]; 0.1%) | Reproduction-inhibiting effect ([4]; 0.2%) | Reproduction-inhibiting effect ([5]; 0.05%) | Reproduction-inhibiting effect ([5]; 0.1%) | Reproduction-inhibiting effect ([5]; 0.2%) | Reproduction-inhibiting ([7]; 0.1%) | Reproduction-inhibiting ([7]; 0.2%) | Reproduction-inhibiting ([8]; 0.05%, after 3 months) | Reproduction-inhibiting ([8]; 0.1%, after 3 months) | Reproduction-inhibiting ([8]; 0.2%, after 3 months) | Reproduction-inhibiting ([9]; 0.1%, after 3 months) | Reproduction-inhibiting ([9]; 0.2%, after 3 months) | Reproduction-inhibiting ([10]; 0.05%) | Reproduction-inhibiting ([10]; 0.1%) | Reproduction-inhibiting ([10]; 0.2%) | Reproduction-inhibiting effect ([11]; 0.1%) | Reproduction-inhibiting effect ([11]; 0.2%) | Reproduction-inhibiting effect ([12]; 0.1%) | Reproduction-inhibiting effect ([12]; 0.2%) | Reproduction-inhibiting effect ([13]; 0.1%) | Reproduction-inhibiting effect ([13]; 0.2%) | Reproduction-inhibiting effect ([14]; 0.1%) | Reproduction-inhibiting effect ([14]; 0.2%) | Reproduction-inhibiting effect ([15]; 0.05%) | Reproduction-inhibiting effect ([15]; 0.1%) | Reproduction-inhibiting effect ([15]; 0.2%)
+: Reproduction-inhibiting ([7]; 0.05%) | Reproduction-inhibiting effect ([12]; 0.05%)
3.5: Killing index ([6]; 0.063%)
±: Reproduction-inhibiting effect ([1]; 0.05%) | Reproduction-inhibiting effect ([2]; 0.05%) | Reproduction-inhibiting effect ([3]; 0.05%) | Reproduction-inhibiting effect ([4]; 0.05%) | Reproduction-inhibiting ([9]; 0.05%, after 3 months) | Reproduction-inhibiting effect ([13]; 0.05%)
4: controlling effect ([16]; 1 ppm, 21 days)
